Test results published in patent US11779575B2, “Use of Wnt inhibitor Wnt-C59 in preparation of drug for treating SCN5A mutation-induced dilated cardiomyopathy” (ZHONGSHAN HOSPITAL, FUDAN UNIVERSITY, priority 2020, dated 2023).

Key:
[1] = test system: SCN5A heterozygous mutant mice (KI) with galactose aging and adriamycin-induced DCM; test: Evaluation on mouse cardiac function by echocardiography in aging and adriamycin-induced DCM model; format: in vivo; conditions: KI+Wnt-C59 group vs KI group, intragastric 1 mg/kg.d for 2 weeks
Description: (§1) SPF-grade male C57BL/6 mice (purchased from Shanghai Jiesijie Experimental Animal Co., Ltd.) and SCN5A heterozygous mutant mice (aging 8 to 10 weeks and weighing 20 g to 25 g) were selected and intraperitoneally injected with d-galactose (500 mg/kg. d, sigma G5388) continuously for 8 weeks to construct aging models. Then the mice were intraperitoneally injected with adriamycin (4 intraperitoneal injections, total 10 mg/kg, Sangon A603456) to construct DCM models. After the models were constructed, cardiomyocytes were isolated from mice in each of the KI group and the WT group. The experimental scheme was approved by the Animal Management and Ethics Committee of Fudan University.
After the ultrasonic test, there were 3 groups for study: WT group, KI group, and KI+Wnt-C59 group. Adriamycin was used for molding, and at the same time, the KI+Wnt-C59 group was intragastrically administered with Wnt-C59 (1 mg/kg.d, MCE HY-15659) every day, and the WT and KI groups were intragastrically administered with an equal volume of sterile normal saline as a control. […] The body weight was measured and recorded for mice in each group every day.
The echocardiogram was measured 2 weeks after the administration, with a probe frequency of 30 MHz. Specifically, the mice were anesthetized with isoflurane, and an M-mode image was recorded when a heart rate of the mice was maintained at 450 to 500 beats/min. […]

46 types of tumor cells = conditions: cited from earlier work
[2] = test system: SCN5A heterozygous mutant mice (KI) with galactose aging and adriamycin-induced DCM; test: Heart size comparison after 2 weeks of drug intervention; format: in vivo; conditions: KI+Wnt-C59 group vs KI group; intragastric 1 mg/kg.d for 2 weeks
Description: as §1
After the ultrasonic test, there were 3 groups for study: WT group, KI group, and KI+Wnt-C59 group. Adriamycin was used for molding, and at the same time, the KI+Wnt-C59 group was intragastrically administered with Wnt-C59 (1 mg/kg.d, MCE HY-15659) every day, and the WT and KI groups were intragastrically administered with an equal volume of sterile normal saline as a control. Mice in each group received normal diet and water, and the administration was conducted continuously for 2 weeks. The body weight was measured and recorded for mice in each group every day.
After 2 weeks of drug intervention, the mice were sacrificed and hearts thereof were collected for heart size comparison among the 3 groups.

Cc1cc(-c2ccc(CC(=O)Nc3ccc(-c4cccnc4)cc3)cc2)ccn1 [Wnt-C59]
cardiac function (left ventricular ejection fraction, LVEF) [1]: significantly improved | proliferation of tumor cells (46 types of tumor cells): significantly inhibit | heart size [2]: significantly smaller
